What was measured:
Type in all cases: in vivo
AMARE [1] = experiment: Pre-emergence herbicidal action; details: 320 g/ha, scored after 3 weeks
Description: (§1) Seeds of monocotyledonous and dicotyledonous weed plants and crop plants are laid out in sandy loam soil in wood-fiber pots and covered with soil. The compounds of the invention, formulated in the form of wettable powders (WP) or as emulsion concentrates (EC), are then applied to the surface of the covering soil in the form of an aqueous suspension or emulsion at a water application rate equating to 600 to 800 I/ha, with addition of 0.2% wetting agent. After the treatment, the pots are placed in a greenhouse and kept under good growth conditions for the trial plants. The damage to the test plants is scored visually after a test period of 3 weeks by comparison with untreated controls (herbicidal activity in percent (%): 100% activity=the plants have died, 0% activity=like control plants).
(§2) At the same time, inventive compounds leave Gramineae crops such as barley, wheat, rye, millet/sorghum, corn or rice virtually undamaged when applied pre-emergence, even at high active ingredient dosages. In addition, some substances are also harmless to dicotyledonous crops such as soya, cotton, oilseed rape, sugar beet or potatoes. […] The tables below illustrate, in an exemplary manner, the pre-emergence herbicidal action of the compounds according to the invention, the herbicidal activity being stated in percent.

ABUTH [2] = experiment: Pre-emergence herbicidal action; details: Table 3, pre-emergence (PE), 320 g/ha, scored after 3 weeks
Description: as §1, §2

ECHCG [3] = experiment: Pre-emergence herbicidal action; details: 320 g/ha, scored after 3 weeks
Description: as §1, §2

SETVI [4] = experiment: Pre-emergence herbicidal action; details: Table 3, pre-emergence (PE), 320 g/ha, scored after 3 weeks
Description: as §1, §2

ALOMY = experiment: Pre-emergence herbicidal action; details: Table 3, pre-emergence (PE), 320 g/ha, scored after 3 weeks
Description: as §1, §2

STEME = experiment: Post-emergence herbicidal action; details: 320 g/ha, assessed after about 3 weeks
Method: (§3) Seeds of monocotyledonous and dicotyledonous weed and crop plants are laid out in sandy loam soil in wood-fiber pots, covered with soil and cultivated in a greenhouse under good growth conditions. 2 to 3 weeks after sowing, the test plants are treated at the one-leaf stage. The compounds of the invention, formulated in the form of wettable powders (WP) or as emulsion concentrates (EC), are then sprayed onto the green parts of the plants in the form of an aqueous suspension or emulsion at a water application rate equating to 600 to 800 l/ha, with addition of 0.2% wetting agent. After the test plants have been left to stand in the greenhouse under optimal growth conditions for about 3 weeks, the action of the preparations is assessed visually in comparison to untreated controls (herbicidal action in percent (%): 100% activity=the plants have died, 0% activity=like control plants). […] At the same time, inventive compounds leave Gramineae crops such as barley, wheat, rye, millet/sorghum, corn or rice virtually undamaged when applied post-emergence, even at high active ingredient dosages. In addition, some substances are also harmless to dicotyledonous crops such as soya, cotton, oilseed rape, sugar beet or potatoes. Some of the compounds according to the invention have high selectivity and are therefore suitable for controlling unwanted vegetation in agricultural crops by the post-emergence method. The tables below illustrate, in an exemplary manner, the post-emergence herbicidal action of the compounds according to the invention, the herbicidal activity being stated in percent.

VIOTR = experiment: Post-emergence herbicidal action; details: Table 5, post-emergence (PO), 320 g/ha, assessed after about 3 weeks
Method: as §3

POLCO = experiment: Post-emergence herbicidal action; details: Table 5, post-emergence (PO), 320 g/ha, assessed after about 3 weeks
Method: as §3

AMARE [5] = experiment: Post-emergence herbicidal action; details: 320 g/ha, assessed after about 3 weeks
Method: as §3

ABUTH [6] = experiment: Post-emergence herbicidal action; details: 320 g/ha, assessed after about 3 weeks
Method: as §3

ECHCG [7] = experiment: Post-emergence herbicidal action; details: Table 5, post-emergence (PO), 320 g/ha, assessed after about 3 weeks
Method: as §3

PHBPU = experiment: Post-emergence herbicidal action; details: Table 5, post-emergence (PO), 320 g/ha, assessed after about 3 weeks
Method: as §3

SETVI [8] = experiment: Post-emergence herbicidal action; details: 320 g/ha, assessed after about 3 weeks
Method: as §3

SMILES	Herbicidal action against AMARE (AMARE [1]; Table 3, pre-emergence (PE))	Herbicidal action against ABUTH (ABUTH [2])	Herbicidal action against ECHCG (ECHCG [3]; Table 3, pre-emergence (PE))	Herbicidal action against SETVI (SETVI [4])	Herbicidal action against ALOMY (ALOMY)	Herbicidal action against STEME (STEME; Table 5, post-emergence (PO))	Herbicidal action against VIOTR (VIOTR)	Herbicidal action against POLCO (POLCO)	Herbicidal action against AMARE (AMARE [5]; Table 5, post-emergence (PO))	Herbicidal action against ABUTH (ABUTH [6]; Table 5, post-emergence (PO))	Herbicidal action against ECHCG (ECHCG [7])	Herbicidal action against PHBPU (PHBPU)	Herbicidal action against SETVI (SETVI [8]; Table 5, post-emergence (PO))	Herbicidal action against AMARE (AMARE [1]; Table 4, pre-emergence (PE))	Herbicidal action against ECHCG (ECHCG [3]; Table 4, pre-emergence (PE))	Herbicidal action against STEME (STEME; Table 6, post-emergence (PO))	Herbicidal action against AMARE (AMARE [5]; Table 6, post-emergence (PO))	Herbicidal action against ABUTH (ABUTH [6]; Table 6, post-emergence (PO))	Herbicidal action against SETVI (SETVI [8]; Table 6, post-emergence (PO))
Nc1cc(-c2ccc3ccsc3c2)nc(C(=O)OCc2ccc(Cl)cc2)c1Cl [Example I-14]	100%	50%	100%	80%	30%	100%	70%	100%	100%	100%	90%	80%	90%						
COc1c(F)ccc(COC(=O)c2nc(-c3ccc4sccc4c3)cc(N)c2Cl)c1F [Example I-22]	100%	20%	90%	90%	50%	100%	80%	90%	100%	100%	90%	80%	100%						
Nc1c(F)c(-c2ccc3sccc3c2)nc(C(=O)OCc2ccc(Cl)cc2)c1Cl [Example I-65]						80%	10%	100%	100%	80%	80%	0%	90%						
Nc1cc(-c2ccc3sccc3c2)nc(C(=O)OCc2cccc(Cl)c2)c1Cl [Example I-40]						80%	60%	40%	100%	90%	90%	80%	90%	80%	10%				
Nc1cc(-c2ccc3ncsc3c2)nc(C(=O)OCc2cccc(F)c2)c1Cl [Example I-41]						100%	90%	0%	90%	100%	100%	70%	100%	50%	90%				
COc1ccc(COC(=O)c2nc(-c3ccc4ccoc4c3)c(F)c(N)c2Cl)c(OC)c1 [Example I-35]						90%	60%	80%	100%	80%	90%	20%	100%	100%	40%				
Nc1c(F)c(-c2ccc3ccsc3c2)nc(C(=O)OCc2ccc(F)cc2)c1Cl [Example I-53]						100%	10%	80%	100%	80%	90%	0%	90%	100%	70%				
Nc1c(F)c(-c2ccc3occc3c2)nc(C(=O)OCc2ccc(F)cc2)c1Cl [Example I-34]						90%	0%	80%	100%	90%	80%	40%	100%	100%	50%				
Nc1c(F)c(-c2ccc3occc3c2)nc(C(=O)OCc2c(F)cc(F)cc2F)c1Cl [Example I-52]	80%	20%	30%	40%	80%											80%	90%	80%	20%
Nc1c(F)c(-c2ccc3ccsc3c2)nc(C(=O)OCc2c(F)cc(F)cc2F)c1Cl [Example I-55]						90%	10%	90%	100%	60%	90%	0%	90%	100%	40%				
Nc1c(F)c(-c2ccc3occc3c2)nc(C(=O)OCc2ccc(Cl)cc2)c1Cl [Example I-47]	100%	20%	70%	50%	60%											80%	90%	90%	70%
